Laboratory results from article PMC9618804, “CXCR1 and its downstream NF-κB inflammation signaling pathway as a key target of Guanxinning injection for myocardial ischemia/reperfusion injury” (Frontiers in Immunology, 2022).

Assays:
[1] = target: T1, hCXCR1 (Homo sapiens, UniProt P25024); assay: CETSA in cell lysate, Western blot; format: biochemical; conditions: AC-16 lysate; 20 uM DSS, 30 min at room temperature, 3 min at 37-73 C
T1 construct: gene CXCR1; native full-length receptor in freeze-thaw lysate supernatant of human AC-16 cardiomyocytes; detected by Western blot
T1 sequence (P25024 1-350): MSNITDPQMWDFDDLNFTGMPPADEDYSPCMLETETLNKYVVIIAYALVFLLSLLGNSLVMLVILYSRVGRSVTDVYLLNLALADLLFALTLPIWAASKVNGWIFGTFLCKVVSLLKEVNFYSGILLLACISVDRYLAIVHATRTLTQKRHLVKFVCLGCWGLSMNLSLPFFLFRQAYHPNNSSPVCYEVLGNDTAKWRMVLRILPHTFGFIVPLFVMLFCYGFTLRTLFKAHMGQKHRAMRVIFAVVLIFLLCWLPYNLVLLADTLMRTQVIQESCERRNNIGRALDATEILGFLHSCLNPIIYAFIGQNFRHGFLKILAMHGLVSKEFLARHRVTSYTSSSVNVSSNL

[2] = target: T2, mCXCR1 (Mus musculus, UniProt Q810W6); assay: CETSA and isothermal dose-response (ITDRF-CETSA) in cell lysate, Western blot; format: biochemical; conditions: HL-1 lysate; 20 uM DSS, 30 min at room temperature, 3 min at 37-73 C; ITDRF 0-20 uM at 61 C
T2 construct: gene Cxcr1; native full-length receptor in freeze-thaw lysate supernatant of mouse HL-1 cardiomyocytes; detected by Western blot (anti-CXCR1 bs-1009R)
T2 sequence (Q810W6 1-351): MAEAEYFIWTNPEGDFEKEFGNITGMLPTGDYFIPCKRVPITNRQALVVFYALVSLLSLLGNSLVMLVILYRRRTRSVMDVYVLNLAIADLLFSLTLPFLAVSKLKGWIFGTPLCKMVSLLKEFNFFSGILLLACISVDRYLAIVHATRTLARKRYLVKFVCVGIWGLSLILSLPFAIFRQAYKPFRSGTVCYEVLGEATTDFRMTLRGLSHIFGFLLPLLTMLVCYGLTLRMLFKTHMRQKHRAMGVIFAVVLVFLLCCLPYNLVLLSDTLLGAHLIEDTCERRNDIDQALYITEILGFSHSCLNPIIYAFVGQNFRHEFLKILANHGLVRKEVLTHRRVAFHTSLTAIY

## O=C(O)[C@H](O)Cc1ccc(O)c(O)c1 [DSS, Danshensu]
[1]
  thermal stabilization (CETSA): DSS also binds to hCXCR1 to increase its thermal stability
[2]
  thermal stabilization (CETSA): this thermal stabilization between Danshensu and mCXCR1 was dose dependent from ITDRFCETSA
